ChEMBL document CHEMBL1129591 (J Med Chem, 1996)

Tests used:
[1] = target: T1, 5-hydroxytryptamine receptor 1A (Homo sapiens, UniProt P08908); assay: Ability to inhibit the forskolin-stimulated c-AMP formation mediated by human 5-hydroxytryptamine 1A receptor in CHO-K1 cells; type: functional, cell-based
T1 sequence (P08908 whole entry): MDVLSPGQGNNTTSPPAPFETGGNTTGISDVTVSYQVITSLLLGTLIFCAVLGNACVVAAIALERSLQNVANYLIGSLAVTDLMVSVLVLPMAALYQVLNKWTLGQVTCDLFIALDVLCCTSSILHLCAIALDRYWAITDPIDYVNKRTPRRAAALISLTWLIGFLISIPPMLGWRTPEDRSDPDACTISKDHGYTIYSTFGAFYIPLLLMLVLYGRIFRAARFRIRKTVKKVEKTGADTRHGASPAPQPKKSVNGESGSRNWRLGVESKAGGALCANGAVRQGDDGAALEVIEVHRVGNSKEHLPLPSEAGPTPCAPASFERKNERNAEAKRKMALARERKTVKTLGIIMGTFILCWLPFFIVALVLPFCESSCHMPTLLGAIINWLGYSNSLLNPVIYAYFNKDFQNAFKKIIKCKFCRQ

[2] = target: T2, 5-hydroxytryptamine receptor 1B (Homo sapiens, UniProt P28222); assay: Ability to inhibit the forskolin-stimulated c-AMP formation mediated by human 5-hydroxytryptamine 1B receptor in CHO-K1 cells; type: functional, cell-based
[3] = target: T2, 5-hydroxytryptamine receptor 1B; assay: Inhibition of forskolin-stimulated c-AMP formation by human 5-hydroxytryptamine 1B receptor expressed in CHO-K1 cells; type: functional, cell-based
[4] = target: 5-hydroxytryptamine receptor 1D (Homo sapiens, UniProt P28221); assay: Binding affinity at cloned human 5-hydroxytryptamine 1D receptor
5-hydroxytryptamine receptor 1D, sequence (P28221 whole entry): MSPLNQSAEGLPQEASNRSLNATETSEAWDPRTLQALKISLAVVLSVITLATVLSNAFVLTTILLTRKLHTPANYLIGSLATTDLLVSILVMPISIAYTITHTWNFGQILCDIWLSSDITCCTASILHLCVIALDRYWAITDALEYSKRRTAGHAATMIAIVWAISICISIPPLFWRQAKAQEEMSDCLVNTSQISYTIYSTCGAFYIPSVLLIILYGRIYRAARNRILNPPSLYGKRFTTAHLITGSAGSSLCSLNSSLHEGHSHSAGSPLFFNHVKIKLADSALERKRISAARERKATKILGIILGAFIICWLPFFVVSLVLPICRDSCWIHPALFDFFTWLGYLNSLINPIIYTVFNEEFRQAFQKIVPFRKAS

T2 sequence (P28222 whole entry): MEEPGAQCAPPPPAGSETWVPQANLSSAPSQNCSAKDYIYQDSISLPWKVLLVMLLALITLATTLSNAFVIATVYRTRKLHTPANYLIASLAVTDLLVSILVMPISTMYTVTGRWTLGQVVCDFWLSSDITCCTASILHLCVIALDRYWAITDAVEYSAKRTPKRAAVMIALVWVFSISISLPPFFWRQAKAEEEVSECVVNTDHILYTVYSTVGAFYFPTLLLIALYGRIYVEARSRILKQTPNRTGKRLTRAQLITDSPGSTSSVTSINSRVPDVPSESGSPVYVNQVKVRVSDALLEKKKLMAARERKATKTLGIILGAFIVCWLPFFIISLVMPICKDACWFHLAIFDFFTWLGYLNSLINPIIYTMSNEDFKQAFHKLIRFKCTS

Structure (SMILES) | Ki [1] | Ki [2] | EC50 [3] | Ki [4]
NCCc1c[nH]c2ccc(OCc3ccc(COc4ccc5[nH]cc(CCN)c5c4)cc3)cc12 | 1.6 nM | 0.1 nM | 3 nM | 0.11 nM
NCCc1c[nH]c2ccc(OCCN3CCN(CCOc4ccc5[nH]cc(CCN)c5c4)CC3)cc12 | 9.5 nM | 0.26 nM | 0.19 nM | 0.35 nM
NCCc1c[nH]c2ccc(OCC(=O)NCCCNC(=O)COc3ccc4[nH]cc(CCN)c4c3)cc12 | 8.6 nM | 0.3 nM | 0.09 nM | 0.3 nM
NCCc1c[nH]c2ccc(OCC(=O)N3CCN(C(=O)COc4ccc5[nH]cc(CCN)c5c4)CC3)cc12 | 20 nM | 0.36 nM | 0.28 nM | 0.42 nM
NCCc1c[nH]c2ccc(OCC(=O)N3CCNCC3)cc12 | > 100 nM | > 100 nM |  | > 100 nM
NCCc1c[nH]c2ccc(OCCNC(=O)NCCOc3ccc4[nH]cc(CCN)c4c3)cc12 | 2.2 nM | 0.2 nM | 1.6 nM | 0.4 nM
NCCc1c[nH]c2ccc(OCCN3CCN(C(=O)COc4ccc5[nH]cc(CCN)c5c4)CC3)cc12 | 9.5 nM | 0.11 nM | 0.22 nM | 0.16 nM
NCCc1c[nH]c2ccc(OCCNC(=O)COc3ccc4[nH]cc(CCN)c4c3)cc12 | 2.2 nM | 0.16 nM | 0.44 nM | 0.18 nM
NCCc1c[nH]c2ccc(OCc3cccc(COc4ccc5[nH]cc(CCN)c5c4)c3)cc12 | 1 nM | 0.32 nM | 0.85 nM | 0.35 nM
NCCc1c[nH]c2ccc(OCc3ccccc3COc3ccc4[nH]cc(CCN)c4c3)cc12 | 4.3 nM | 1.7 nM | 2.07 nM | 1.5 nM
NCCc1c[nH]c2ccc(OCCCCCCNS(=O)(=O)c3ccc(-c4ccc(S(=O)(=O)NCCCCCCOc5ccc6[nH]cc(CCN)c6c5)cc4)cc3)cc12 | 1.66 nM | 0.38 nM | 0.1 nM | 0.45 nM
NCCc1c[nH]c2ccc(OCCOc3ccc4[nH]cc(CCN)c4c3)cc12 | 14.3 nM | 2.5 nM | 4 nM | 1 nM
NCCc1c[nH]c2ccc(OCC(=O)Nc3ccc(NC(=O)COc4ccc5[nH]cc(CCN)c5c4)cc3)cc12 | 4.06 nM | 0.27 nM | 0.3 nM | 0.11 nM
NCCc1c[nH]c2ccc(OCC(=O)Nc3ccc(N4CCN(C(=O)COc5ccc6[nH]cc(CCN)c6c5)CC4)cc3)cc12 | 9.8 nM | 0.14 nM | 0.4 nM | 0.09 nM
NCCc1c[nH]c2ccc(OCC(=O)N3CCC(C4CCN(C(=O)COc5ccc6[nH]cc(CCN)c6c5)CC4)CC3)cc12 | 4 nM | 0.22 nM | 0.26 nM | 0.27 nM
NCCc1c[nH]c2ccc(OCCCCCCOc3ccc4[nH]cc(CCN)c4c3)cc12 | 1.8 nM | 0.5 nM | 0.6 nM | 0.46 nM
